Measured values published in US6680331B2, “Lactam and thiolactam derivatives as anesthetic and conscious sedation agents” (priority 2001, dated 2004).
“And” between values parts separate entries of the source, which are not always exact repeats. Identical values can stand only once.

Tests used:
[1] = system: mice; conditions: cited from earlier work
[2] = system: Female ICR mice; assay: Loss of righting reflex (LORR) model of anesthesia; assay type: in vivo
Excerpt: Female ICR mice, weighing between 18 and 31 g were used for all experiments. The animals were housed four in a cage in a […] light/dark cycle with free access to food and water. Animal weight at the time of the experiment ranged from 22 to 33 g. On the day of the experiment, animals were brought to the lab in groups of 6-8. They were not allowed food or water for the duration of the testing period. After each experiment, animals were sacrificed.
Diethyl lactam was synthesized as described previously (Example 1 and U.S. Pat. Nos. 6,066,666 and 5,776,959) and dissolved in 0.9% saline. All drugs were given by intraperitoneal (i.p.) injections in a volume of 0.01 ml/g body weight.
The anesthetic effect was determined using the loss of righting reflex (LORR) model of anesthesia. […] The time to onset and duration of loss of righting reflex was recorded for each animal.
Animals were given diethyl lactam at doses of 250, 325, 375, 500, 625, 750, 875 and 1000 mg/kg of body weight, and the time to regain the righting reflex (RR) as well as the duration of LORR were measured (Table 1). […] Other movements include a shiver (one mouse), a head twitch (one mouse), face vibrations (one mouse) and repetitive hindlimb scratching (one mouse).

[3] = 500 mg/kg i.p., mice, ± one standard deviation
[4] = 625 mg/kg i.p., mice, ± one standard deviation
[5] = 750 mg/kg i.p., mice, ± one standard deviation
[6] = 1000 mg/kg i.p., mice, ± one standard deviation
[7] = 1000 mg/kg i.p., two mice excluded from the trial, listed as diethyl lactam

Structure (SMILES): CCC1(CC)CCCNC1=O [3,3-diethyl-2-piperidinone]
- Sedative activity [1]: only weak sedative activity

Structure (SMILES): CCC1(CC)CCNC1=O [DiethylABL, 3,3-diethyl-2-pyrrolidinone]
- Duration of LORR ([2]; 250 mg/kg i.p., mice): 0 min
- LORR (time to onset of loss of righting reflex) ([2]; 250 mg/kg i.p., mice): none at 30 min
- Duration of LORR ([2]; 325 mg/kg i.p., mice): 0 min
- LORR (time to onset of loss of righting reflex) ([2]; 325 mg/kg i.p., mice): none at 30 min
- Duration of LORR ([2]; 375 mg/kg i.p., mice): 0 min
- LORR (time to onset of loss of righting reflex) ([2]; 375 mg/kg i.p., mice): none at 30 min
- Face vibrations ([2]; 500 mg/kg i.p., five mice): one mouse
- Head twitch ([2]; 500 mg/kg i.p., five mice): one mouse
- Mice seen to twitch ([2]; 500 mg/kg i.p., five mice): Three of the five
- Repetitive hindlimb scratching ([2]; 500 mg/kg i.p., five mice): one mouse
- Shiver ([2]; 500 mg/kg i.p., five mice): one mouse
- Physical movements observed during the experiment ([2]; 500 mg/kg i.p., mice): various physical movements
- Duration of LORR [2, 3]: 38.8 ± 11.6 min
- LORR (time to onset of loss of righting reflex) [2, 3]: 2.4 ± 1.8 min
- Regain RR [2, 3]: 41 ± 12 min
- Duration of LORR [2, 4]: 51.3 ± 16.2 min
- LORR (time to onset of loss of righting reflex) [2, 4]: 1.7 ± 0.8 min
- Regain RR [2, 4]: 53 ± 16 min
- Duration of LORR [2, 5]: 109.7 ± 2.0 min
- LORR (time to onset of loss of righting reflex) [2, 5]: 0.9 ± 0.3 min
- Regain RR [2, 5]: 110 ± 2 min
- Duration of LORR ([2]; 875 mg/kg i.p., mice): >360 min
- LORR (time to onset of loss of righting reflex) ([2]; 875 mg/kg i.p., mice): 0.8 min
- Regain RR ([2]; 875 mg/kg i.p., mice): >360 min
- Duration of LORR [2, 6]: 1470.0 ± 756 min
- LORR (time to onset of loss of righting reflex) [2, 6]: 2.0 ± 2.1 min
- Regain RR [2, 6]: 1470 ± 85 min
- LORR (time to onset), individual mice excluded as outliers [2, 7]: 2.4 min and 4.2 min
- LORR duration, individual mice excluded as outliers [2, 7]: 156.6 min and 170.3 min
- Regaining RR, individual mice excluded as outliers [2, 7]: 159 min and 174.5 min
- Time of death after injection ([2]; 1000 mg/kg i.p., two mice included in the trial, listed as diethyl lactam): 7.3 min and 4.0 min
